Patent US20230277669A1, “USES OF UROLITHINS” (Amazentis SA, priority 2022, published 2023)

Tested on: CD8+ T cells
Test: In vitro stimulation of CD3+ T cells with aCD3/aCD28 beads in presence of UA
Assay type: cell-based, FVB mice
Experimental: (FIG. 2A) Scheme of CD3+ T-cell activation and analysis for various timepoints. (FIG. 2B) Reduced effector molecule expression on in vitro treated cells (n=3 pooled from three independent experiments). Isolated T-cells were stimulated for 48 h at the presence of UA or DMSO in the indicated doses. Data are mean ± SD, *p < 0.05 by two-sided t-test. (FIG. 2C) Reduced effector molecule expression on in vitro treated cells (n=3 pooled from three independent experiments). Isolated T-cells were stimulated for 48 h at the presence of UA or DMSO in the indicated doses. Data are mean ± SD, *p < 0.05 by two-sided t-test. (FIG. 2D) Quantification of T memory stem cells (TSCM: CD44^-CD62L^+Sca1^hi) after 24 h, 48 h and 96 h post stimulation with aCD3/aCD28 stimulation beads as indicated in (A) (n=4 pooled from four independent experiments). Data are mean ± SD, statistical analysis was performed via two-sided t-test (*p < 0.05; **p < 0.01; n.s. not significant). (FIG. 2E) Mitochondrial membrane potential within naïve CD62L^+CD44^-CD8^+ T cells, with TMRM^lo representing cells with low mitochondrial membrane potential. Cells were stimulated for 48 h as depicted in (A). Data are mean ± SD, n=4; ***p <0.001 by two-sided t-test. Experiment was repeated twice in independent experiments. (FIG. 2F) Representative histogram and quantification of memory marker CD95 expression in CD62L^+CD44^-CD8^+ cells, 48 hours after in vitro stimulation. Data are mean ± SD; n=5; ****p < 0.0001 by two-sided t-test. Data depicts one of two independent experiments. (FIG. 2G) Analysis of TIL of UA-fed mice, treated as depicted in FIG. 1J. Percentage of TSCM within CD8+ (G; n=7), as well as TCF1 (H; n=7) PD1^hi,Tim3^hi and CTLA4hi (I-K, all n=6) in the TIL CD8+ population are shown. Data are mean ± SD, statistical analysis was performed via two-sided t-test (*p < 0.05; **p < 0.01;, ***p <0.001.). Data depicts one of two independent experiments. (FIG. 2H) The same experiment as FIG. 2G with TCF1 (n=7) in the TIL CD8+ population. (FIG. 2I) The same experiment as FIG. 2G with PD1^hi (n=6) in the TIL CD8+ population. (FIG. 2J) The same experiment as FIG. 2G with Tim3^hi (n=6) in the TIL CD8+ population. (FIG. 2K) The same experiment as FIG. 2G with CTLA4hi (n=6) in the TIL CD8+ population. (FIG. 2L) Flow cytometry readout of ex vivo cytokine release of previously isolated TIL upon re-stimulation with PMA/ionomycin. Data are mean ± SD with n=7 per group. Statistical analysis was performed by two-sided t-test (**p < 0.01). One out of two independent experiments are shown. (FIG. 2M) Flow cytometry readout of ex vivo cytokine release of previously isolated TIL upon re-stimulation with PMA/ionomycin. Data are mean ± SD with n=7 per group. Statistical analysis was performed by two-sided t-test (**p < 0.01). One out of two independent experiments are shown.
(FIG. 4A) Scheme of CD3+ T-cell activation and analysis for various timepoints in order to investigate mitophagy induction in vitro. (FIG. 4B) Analysis of mitochondrial membrane potential within CD8+ T cells, with TMRM^lo representing cells with low mitochondrial membrane potential. Analysis was performed six hours after stimulation with aCD/aCD28 stimulation beads at the presence of the indicated treatments. N=4 per group, *p < 0.05 by Mann Whitney U test. One of two independent experiments are shown. (FIG. 4C) Representative flow histogram and quantification of lysosome formation in CD8+ cells six hours after in vitro stimulation. MFI shown relative to DMSO controls, n=4. Data are normalised mean ± SD, statistical analysis by two-sided t-test. One out of two independent experiments are shown. (FIG. 4D) Mitotracker Red staining of in vitro stimulated CD8+ cells after 24 hours of Urolithin A (UA25 n=6; UA50 n=6) or vehicle control treatment (DMSO: n=4). A representative flow histogram depicting identification of Mitotracker^hi cells is shown. […]

With `O=c1oc2cc(O)ccc2c2ccc(O)cc12` [Urolithin A] the “number of CD44-CD62L+Sca1hi TSCM” value (24 h, 48 h and 96 h post stimulation) was “in a dose dependent manner to a significantly increased number”, the “loss of mitochondrial content per T cell subset (TSCM, TCM, TEFF)” value (24 hours, 50 µM Urolithin A) was “deteted in all T cell subsets analyzed” and the “mitochondrial content (Mitotracker Red) in CD8+ cells” value (24 hours, UA25, UA50) was “loss of mitochondrial content in a dose-dependent manner”. The “TSCM formation, stimulated vs unstimulated CD8+ cells” value (48 h, aCD3/CD28 beads +-UA or unstimulated) was “only formed in activated T cells”, the “PGC-1 expression in CD8+ cells” value (48 h, prolonged UA administration in vitro) was “marked upregulation of PGC-1” and the “CD95 expression in CD62L+CD44-CD8+ cells” value (48 hours after stimulation) was “increased CD95 expression”. The TCF1 expression (48 h stimulation) was “high expression of TCF1”, the “cyclin D1 expression” value (48 h stimulation) was “reduced cyclin D1 expression” and the “differentiation into effector T cells (effector molecule expression)” value (48 h stimulation) was “blocked differentiation into effector T cells”. The “mitochondrial membrane potential (TMRM) in naive CD62L+CD44-CD8+ T cells” value (48 h stimulation) was “reduced mitochondrial membrane potential”, the “naive CD44loCD62Lhi T cells” value (48 h stimulation, different doses of UA) was “significant increase” and the “CD8+ T cell division (CTV staining)” value (72 h stimulation) was “restricted CD8+T cell division in a dose-dependent manner”. For the same compound, the “mitochondrial membrane potential in CD8+ T cells” value (six hours after UA administration) was “reduction of mitochondrial membrane potential” and the “lysosome formation in CD8+ cells” value (six hours after stimulation) was “enhanced lysosome formation”.
